The record followed here is patent US9957247B2, “SecA inhibitors and methods of making and using thereof” (Georgia State University Research Foundation, Inc., priority 2012, dated 2018).

Values after ≈ are worked out from the molar mass of the structure shown. Like-named read-outs stand apart in the source and are kept apart here.

Assay [1] relates to B. subtilis 168. As to the kind of experiment: Bacteriostatic effect, liquid microdilution, B. subtilis 168. The following applies: Bacillus subtilis, Example 2. In kind it is cell-based.
Assay [2] has as its target T1, BsSecA (Bacillus subtilis, UniProt P28366). Description: cell-based. More on the design: species or system B. subtilis. To be noted: Ion channel, IC50, BsSecA, Table 5.
Assay [3] deals with EcSecA.
For assay [4], the target named is T2, EcSecA (Escherichia coli, UniProt P10408). Description: cell-based.
Target sequence in this assay (P10408 whole entry): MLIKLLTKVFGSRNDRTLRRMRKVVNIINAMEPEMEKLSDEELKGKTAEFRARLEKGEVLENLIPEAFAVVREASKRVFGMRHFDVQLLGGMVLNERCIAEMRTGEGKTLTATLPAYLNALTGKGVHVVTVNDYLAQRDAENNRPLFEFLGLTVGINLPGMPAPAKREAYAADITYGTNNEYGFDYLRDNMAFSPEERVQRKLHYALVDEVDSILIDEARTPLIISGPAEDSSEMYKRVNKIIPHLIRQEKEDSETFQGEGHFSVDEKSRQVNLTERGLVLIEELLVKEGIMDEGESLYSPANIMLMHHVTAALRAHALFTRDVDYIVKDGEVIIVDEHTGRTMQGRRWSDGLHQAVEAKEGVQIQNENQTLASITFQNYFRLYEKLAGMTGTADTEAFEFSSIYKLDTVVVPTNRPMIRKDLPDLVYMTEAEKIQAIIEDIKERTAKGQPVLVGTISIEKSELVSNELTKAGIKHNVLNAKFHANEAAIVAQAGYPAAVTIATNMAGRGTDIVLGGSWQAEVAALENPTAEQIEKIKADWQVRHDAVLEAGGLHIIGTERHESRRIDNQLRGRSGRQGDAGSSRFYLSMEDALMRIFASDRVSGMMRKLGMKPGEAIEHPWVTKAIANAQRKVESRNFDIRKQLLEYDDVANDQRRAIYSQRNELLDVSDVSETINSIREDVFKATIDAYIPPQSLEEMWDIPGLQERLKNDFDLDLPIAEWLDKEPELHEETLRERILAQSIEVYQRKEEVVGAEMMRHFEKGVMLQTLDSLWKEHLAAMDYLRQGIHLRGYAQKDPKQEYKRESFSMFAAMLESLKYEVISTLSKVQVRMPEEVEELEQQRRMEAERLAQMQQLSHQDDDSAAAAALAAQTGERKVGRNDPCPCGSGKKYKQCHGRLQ
Assay [5] has as its system EcSecA. In kind it is biochemical, E. coli.
For assay [6], the target named is T2, EcSecA. The following applies: read-out: IC50, translocation ATPase activity of EcSecA; Example 1.
Target sequence in this assay (P0AG99 whole entry): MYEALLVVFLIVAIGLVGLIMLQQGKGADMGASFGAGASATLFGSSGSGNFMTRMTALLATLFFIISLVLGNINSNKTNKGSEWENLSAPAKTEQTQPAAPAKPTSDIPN
Target sequence in this assay (P10408 whole entry): as the sequence (P10408 whole entry) above
Target sequence in this assay (P0AGA2 whole entry, further chain): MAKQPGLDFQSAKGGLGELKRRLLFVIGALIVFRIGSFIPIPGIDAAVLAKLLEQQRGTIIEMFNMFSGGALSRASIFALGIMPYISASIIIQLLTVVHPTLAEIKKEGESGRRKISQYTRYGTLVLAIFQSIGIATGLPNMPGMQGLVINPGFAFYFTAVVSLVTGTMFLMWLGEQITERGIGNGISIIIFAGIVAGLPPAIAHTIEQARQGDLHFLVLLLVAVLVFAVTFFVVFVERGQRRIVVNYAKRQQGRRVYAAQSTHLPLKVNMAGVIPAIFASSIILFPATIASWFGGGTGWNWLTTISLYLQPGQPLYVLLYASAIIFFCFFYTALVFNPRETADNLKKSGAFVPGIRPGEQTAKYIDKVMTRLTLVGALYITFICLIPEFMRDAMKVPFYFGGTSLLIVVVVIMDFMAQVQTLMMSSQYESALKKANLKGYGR
Target sequence in this assay (P0AG96 whole entry, further chain): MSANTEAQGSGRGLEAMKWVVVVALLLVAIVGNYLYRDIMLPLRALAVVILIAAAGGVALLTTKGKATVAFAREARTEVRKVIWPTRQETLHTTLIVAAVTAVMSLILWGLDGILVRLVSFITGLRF
The target in assay [7] is T2, EcSecA. The following applies: read-out: IC50, in vitro protein translocation of proOmpA; Example 1.
Target sequence in this assay (P0AG99 whole entry): as the sequence (P0AG99 whole entry) above
Target sequence in this assay (P10408 whole entry): as the sequence (P10408 whole entry) above
Target sequence in this assay (P0AGA2 whole entry, further chain): as the sequence (P0AGA2 whole entry, further chain) above
Target sequence in this assay (P0AG96 whole entry, further chain): as the sequence (P0AG96 whole entry, further chain) above
The next assay has as its target F1F0-proton ATPase (Escherichia coli, UniProt P0ABB0+P0ABB4). As to the kind of experiment: Proton ATPase activity, reconstituted liposomes. Format: biochemical, E. coli. The method, then:
The N-terminal catalytic domain of SecA from E. coli (EcN68) was overexpressed from pIMBB28. EcN68 was used for the early and initial screening because it has higher intrinsic activity and is more sensitive to inhibitors. […] SecA proteins were purified as previously described. F1F0-proton ATPase-enriched membrane of E. coli strain KY7485 was prepared as described in the literature. F1F0-proton ATPase was partially purified by sucrose-gradient fractionation and then reconstituted into liposomes by dialysis. Non-radiolabeled and [^35S]-labeled proOmpA were purified as previously described. SecA-depleted BA13 membrane vesicles were prepared as described in the literature,[32] and washed with 6M urea to reduce endogenous ATPase activity.

Assay [8] addresses T1, BsSecA. As to the kind of experiment: biochemical. In kind it is biochemical, B. subtilis. To be noted: Example 1.
Assay [9] addresses T2, EcSecA. To be noted: read-out: IC50, membrane ATPase activity of EcSecA; Example 1.
Target sequence in this assay (P0AG99 whole entry): as the sequence (P0AG99 whole entry) above
Target sequence in this assay (P10408 whole entry): as the sequence (P10408 whole entry) above
Target sequence in this assay (P0AGA2 whole entry, further chain): as the sequence (P0AGA2 whole entry, further chain) above
Target sequence in this assay (P0AG96 whole entry, further chain): as the sequence (P0AG96 whole entry, further chain) above
In another assay the target is EcSecA N68 (Escherichia coli, UniProt P10408). As to the kind of experiment: biochemical. In kind it is biochemical, E. coli. To be noted: Example 1, fluorescein analogs; read-out: IC50, EcN68 SecA ATPase (unregulated ATPase).
The subject of the next assay is S. aureus Mu3. Description: Bacteriostatic effect, S. aureus Mu3. To be noted: Staphylococcus aureus, MU3, read-out: Bacteriostatic effect, MIC, S. aureus Mu3.
The next assay has as its target T3, SaSecA2 (Staphylococcus aureus, UniProt Q2FUW6).
T3 sequence (Q2FUW6 1-796): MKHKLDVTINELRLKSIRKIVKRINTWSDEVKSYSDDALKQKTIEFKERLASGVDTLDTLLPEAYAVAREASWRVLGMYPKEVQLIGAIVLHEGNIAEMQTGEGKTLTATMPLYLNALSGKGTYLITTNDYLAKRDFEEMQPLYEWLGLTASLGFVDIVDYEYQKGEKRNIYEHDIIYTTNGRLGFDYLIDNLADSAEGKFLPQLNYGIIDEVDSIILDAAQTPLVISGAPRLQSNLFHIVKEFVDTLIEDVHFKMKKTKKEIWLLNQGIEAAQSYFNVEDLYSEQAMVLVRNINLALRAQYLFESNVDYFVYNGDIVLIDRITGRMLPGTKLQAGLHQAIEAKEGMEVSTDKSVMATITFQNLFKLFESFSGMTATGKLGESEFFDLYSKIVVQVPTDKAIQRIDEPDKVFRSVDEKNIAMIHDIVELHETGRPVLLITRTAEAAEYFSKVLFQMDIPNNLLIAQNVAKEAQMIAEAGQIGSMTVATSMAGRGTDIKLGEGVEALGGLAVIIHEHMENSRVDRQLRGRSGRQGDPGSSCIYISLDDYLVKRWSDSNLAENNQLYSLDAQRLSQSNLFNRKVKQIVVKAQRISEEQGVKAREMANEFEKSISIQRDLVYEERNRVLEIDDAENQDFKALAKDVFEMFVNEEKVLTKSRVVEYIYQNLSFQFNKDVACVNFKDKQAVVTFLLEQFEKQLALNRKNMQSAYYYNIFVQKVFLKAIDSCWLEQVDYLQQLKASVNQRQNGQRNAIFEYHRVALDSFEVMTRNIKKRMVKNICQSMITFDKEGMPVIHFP
As to the kind of experiment: ATPase activity assay (malachite green), SaSecA2.

Another assay relates to S. aureus 6538. As to the kind of experiment: Bacteriostatic effect, S. aureus 6538. The following applies: Staphylococcus aureus, 6538, read-out: Bacteriostatic effect, MIC, S. aureus 6538.
A further assay addresses PaSecA (Pseudomonas aeruginosa, UniProt Q9LCT3). Description: cell-based. Format: cell-based.
A further assay has as its system S. aureus 8325-4. As to the kind of experiment: Bacteriostatic effect, S. aureus 8325-4 (WT). To be noted: Staphylococcus aureus, 83254, read-out: Bacteriostatic effect, MIC, WT 8325-4.
Assay [10] has as its system SecA (S. pyogenes, S. aureus, and E. coli). Description: Oocyte assay, inhibition of SecA. To be noted: read-out: IC50, inhibiting SecA in the oocyte assay.
Another assay relates to S. aureus N315. Description: Bacteriostatic effect, S. aureus N315. To be noted: Staphylococcus aureus, N315, read-out: Bacteriostatic effect, MIC, S. aureus N315.
A short description of assay [11]: Bactericidal effect in the dark and under light (photooxidation). Format: cell-based.
For the next assay, the system named is S. pyogenes, MGAS5005. As to the kind of experiment: MIC95, S. pyogenes MGAS5005. The following applies: Streptococcus pyogenes, MGAS5005, read-out: MIC95, S. pyogenes MGAS5005. Format: cell-based.
A further assay addresses SpSecA (Streptococcus pyogenes, UniProt Q99Y96). In kind it is cell-based. The following applies: read-out: IC50, Ion Channel activity, SpSecA; Table 1.
The target in a further assay is BsSecA2. To be noted: read-out: IC50, Intrinsic ATPase, BsSecA2; Table 1.
Assay [12] deals with B. subtilis 168. As to the kind of experiment: Bactericidal effect assay, B. subtilis 168. In kind it is cell-based.
Another assay has as its system B. anthracis Sterne. As to the kind of experiment: microbe, parasite or virus in culture. The following applies: Bacillus anthracis, read-out: Bacteriostatic MIC95, B. anthracis Sterne. Format: cell-based.
Another assay relates to S. aureus Mu50. Description: Bacteriostatic effect, S. aureus Mu50. The following applies: Staphylococcus aureus.

A word on the IC50: it is the concentration that inhibits the measured activity by half.

Sequence of PaSecA (Q9LCT3 whole entry): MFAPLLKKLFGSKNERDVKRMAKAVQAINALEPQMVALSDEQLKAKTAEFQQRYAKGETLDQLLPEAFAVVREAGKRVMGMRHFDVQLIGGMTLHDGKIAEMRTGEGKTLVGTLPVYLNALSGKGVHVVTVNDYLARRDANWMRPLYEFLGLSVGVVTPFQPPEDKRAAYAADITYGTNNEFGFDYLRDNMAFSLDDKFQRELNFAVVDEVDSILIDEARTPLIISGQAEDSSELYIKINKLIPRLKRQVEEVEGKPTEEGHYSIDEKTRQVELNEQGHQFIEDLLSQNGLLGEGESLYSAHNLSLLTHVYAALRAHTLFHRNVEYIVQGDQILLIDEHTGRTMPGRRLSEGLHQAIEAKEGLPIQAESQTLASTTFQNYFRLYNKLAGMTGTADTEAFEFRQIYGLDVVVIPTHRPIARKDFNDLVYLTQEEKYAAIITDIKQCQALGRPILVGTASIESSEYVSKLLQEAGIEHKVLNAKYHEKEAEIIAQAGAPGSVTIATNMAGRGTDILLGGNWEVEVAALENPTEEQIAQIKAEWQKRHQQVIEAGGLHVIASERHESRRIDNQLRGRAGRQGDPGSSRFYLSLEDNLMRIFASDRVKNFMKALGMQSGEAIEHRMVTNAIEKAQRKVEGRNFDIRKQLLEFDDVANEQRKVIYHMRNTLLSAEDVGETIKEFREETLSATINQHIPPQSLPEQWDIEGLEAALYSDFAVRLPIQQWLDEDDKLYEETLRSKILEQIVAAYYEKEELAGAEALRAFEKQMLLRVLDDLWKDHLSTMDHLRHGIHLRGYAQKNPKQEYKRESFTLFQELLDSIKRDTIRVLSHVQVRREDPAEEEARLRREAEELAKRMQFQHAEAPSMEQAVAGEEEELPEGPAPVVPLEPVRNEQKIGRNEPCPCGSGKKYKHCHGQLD
T1 sequence (P28366 whole entry): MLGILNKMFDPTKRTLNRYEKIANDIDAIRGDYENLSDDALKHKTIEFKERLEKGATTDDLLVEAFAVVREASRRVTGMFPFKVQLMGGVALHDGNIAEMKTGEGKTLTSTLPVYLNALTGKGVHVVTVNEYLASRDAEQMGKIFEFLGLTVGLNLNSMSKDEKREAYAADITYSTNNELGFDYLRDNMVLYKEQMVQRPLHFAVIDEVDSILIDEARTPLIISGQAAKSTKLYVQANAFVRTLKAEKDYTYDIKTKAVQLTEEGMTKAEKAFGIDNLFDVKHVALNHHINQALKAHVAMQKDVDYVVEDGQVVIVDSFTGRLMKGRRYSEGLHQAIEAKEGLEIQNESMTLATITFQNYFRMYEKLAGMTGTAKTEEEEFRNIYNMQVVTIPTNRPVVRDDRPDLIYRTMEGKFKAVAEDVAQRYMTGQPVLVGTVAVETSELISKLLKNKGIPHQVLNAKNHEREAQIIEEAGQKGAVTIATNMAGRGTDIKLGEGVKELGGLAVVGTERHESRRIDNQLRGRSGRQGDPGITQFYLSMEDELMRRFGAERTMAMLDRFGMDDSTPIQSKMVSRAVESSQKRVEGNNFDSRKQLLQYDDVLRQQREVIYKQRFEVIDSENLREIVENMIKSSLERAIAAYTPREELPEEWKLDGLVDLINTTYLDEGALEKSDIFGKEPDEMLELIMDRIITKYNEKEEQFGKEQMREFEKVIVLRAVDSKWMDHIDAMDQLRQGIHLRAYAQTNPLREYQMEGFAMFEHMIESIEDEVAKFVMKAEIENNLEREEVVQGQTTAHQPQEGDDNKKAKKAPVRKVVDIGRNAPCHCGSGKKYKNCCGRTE
Sequence of SpSecA (Q99Y96 whole entry): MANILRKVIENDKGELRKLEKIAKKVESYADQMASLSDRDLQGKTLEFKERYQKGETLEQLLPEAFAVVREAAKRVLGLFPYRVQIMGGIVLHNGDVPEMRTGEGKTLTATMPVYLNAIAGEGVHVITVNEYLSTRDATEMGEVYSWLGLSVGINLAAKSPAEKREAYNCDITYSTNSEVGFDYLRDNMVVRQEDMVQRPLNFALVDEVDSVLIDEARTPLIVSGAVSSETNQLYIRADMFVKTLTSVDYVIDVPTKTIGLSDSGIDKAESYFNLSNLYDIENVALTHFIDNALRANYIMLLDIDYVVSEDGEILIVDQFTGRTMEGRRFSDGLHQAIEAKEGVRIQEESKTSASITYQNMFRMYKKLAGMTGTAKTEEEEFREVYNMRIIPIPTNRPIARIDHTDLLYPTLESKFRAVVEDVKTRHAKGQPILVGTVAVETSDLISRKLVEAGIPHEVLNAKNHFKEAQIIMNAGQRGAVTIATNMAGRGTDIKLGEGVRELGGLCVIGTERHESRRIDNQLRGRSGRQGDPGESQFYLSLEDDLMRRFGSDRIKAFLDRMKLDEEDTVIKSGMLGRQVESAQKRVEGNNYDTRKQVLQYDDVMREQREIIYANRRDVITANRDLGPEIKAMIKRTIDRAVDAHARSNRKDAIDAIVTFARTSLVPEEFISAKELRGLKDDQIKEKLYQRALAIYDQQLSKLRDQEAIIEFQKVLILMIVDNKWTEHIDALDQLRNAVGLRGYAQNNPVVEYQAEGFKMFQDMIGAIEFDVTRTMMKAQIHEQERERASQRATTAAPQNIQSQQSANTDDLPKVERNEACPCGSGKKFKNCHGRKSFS

In the assay on B. subtilis 168 [1], `Oc1ccc2c(c1)Oc1cc(O)ccc1C2C1CCCCC1` [Compound 22d, 9-Cyclohexyl-9H-xanthene-3,6-diol] returned an MIC of 22 µM (≈ 6.52 µg/mL). Also, the results for the IC50 against BsSecA [2] and against EcSecA [4] were 6.6 µM and 2800 nM, respectively. For the same molecule, the “Potency against EcSecA over BsSecA, channel activity” value in the assay on EcSecA [3] was “about 2 fold”.

With `O.O=C([O-])c1ccccc1-c1c2cc(I)c(=O)c(I)c-2oc2c(I)c([O-])c(I)cc12.[Na+].[Na+]` [EB, Erythrosin B], in the assay on EcSecA [5] (at low ATP concentrations), the “Mode of inhibition against ATP” value is “competitive inhibitors”. Besides, the IC50 was 10 to 20 µM on EcSecA [6]; 4 µM at EcSecA [7]; around 30 µM at F1F0-proton ATPase (Example 1, read-out: IC50 against F1F0-proton ATPase); 10 to 20 µM on EcSecA [9]; 2000 nM on EcSecA N68. Besides, the “Effect on the intrinsic ATPase activity of BsSecA” value on BsSecA [8] is recorded as “inhibitory effects”.

On to `O=C(O)c1c(Cl)c(Cl)c(Cl)c(Cl)c1-c1c2cc(I)c(=O)c(I)c-2oc2c(I)c(O)c(I)cc12` [RB, Rose Bengal], for which, in the assay with EcSecA [5] (at high ATP concentrations), the “Mode of inhibition against ATP” value is “competitive inhibition”. The MIC with S. aureus Mu3 came out at 38.2 µg/mL (≈ 39.2 µM); in the assay with B. subtilis 168 [1], 100 µM (≈ 97.4 µg/mL); with S. aureus 6538, 38.2 µg/mL (≈ 39.2 µM); in the assay on S. aureus 8325-4, 13.2 µg/mL (≈ 13.6 µM); in the assay on S. aureus N315 it was 19.1 µg/mL (≈ 19.6 µM); with S. pyogenes, MGAS5005 it was 6.25 µM (≈ 6.09 µg/mL). Moreover, the MIC was 12.2 µg/mL (≈ 12.5 µM) in the assay on B. anthracis Sterne; 40.7 µg/mL (≈ 41.8 µM) in the assay with S. aureus Mu50 (MU50, read-out: Bacteriostatic MIC95, S. aureus Mu50); 50.8 µg/mL (≈ 52.2 µM) in the assay with S. aureus Mu50 (MU50, read-out: Bacteriostatic effect MIC, S. aureus Mu50); 50.8 µg/mL (≈ 52.2 µM) with S. aureus Mu50 (MU50, read-out: Bacteriostatic effect, MIC, S. aureus Mu50). For the same molecule, the IC50 on SaSecA2 (IC50, ATPase activity, SaSecA2, Table 7) amounted to 2500 nM; at SaSecA2 (IC50, Intrinsic ATPase, SaSecA2, Table 1) it was 1000 nM; at PaSecA (IC50, Ion Channel activity, PASecA, Table 1) it was 300 nM; at PaSecA (Rose Bengal IC50, channel activity, PaSecA, +SecYEG + SecDF•C), 2000 nM; against PaSecA (Rose Bengal IC50, channel activity, PaSecA, BA13, BA13 (first value of BA13/Re-13)) it was 5100 nM; at PaSecA (Rose Bengal IC50, channel activity, PaSecA, Liposome + SecYEG) it was 1100 nM. Further, the 50% inhibitory concentration (IC50) is 300 nM at PaSecA (Rose Bengal IC50, channel activity, PaSecA, Liposomes); 300 nM against PaSecA (Rose Bengal IC50, channel activity, PaSecA, Re-13, Re-13 (second value of BA13/Re-13)); 400 nM in [10]; around 10 µM at F1F0-proton ATPase; 900 nM on SpSecA; 15 µM on BsSecA2. In addition, the “Inhibition kinetics, channel activity, PaSecA-liposomes” value at PaSecA (FIG. 3C) is listed as “non-competitive inhibition”. The “Bactericidal effect in the dark” value in [11] (dark) is on record as “little bactericidal effect”. Also, the “Effect of light on the bactericidal effect” value in assay [11] (under light versus dark) is “dramatically increased”. Also, at BsSecA [8], the “Effect on the intrinsic ATPase activity of BsSecA” value is recorded as “inhibitory effects”. Besides, in the assay with B. subtilis 168 [12] (20 μM, one hour, FIG. 2), the “Bactericidal effect, kill of B. subtilis 168” value was “little effect”. Also, in the assay with B. subtilis 168 [12] (100 μM, one-hour treatment), the “Decrease of cell survival (CFU)” value is reported as around 8 log units.
